Measured values from patent publication US8834841B2, “Imaging agents” (priority 2005, dated 2014).

Tests used:
U87 glial blastoma = assay: in vitro amino acid uptake, U87 cells; format: cell-based, human
Source text: (§1) The inventive compounds have been evaluated in vitro for tumor binding specificity (i.e. uptake cells) using a variety of tumor cell lines available in the art, along with reference compounds such as Me-AIB and BCH. Detailed description of these assays can be found in Martarello et al. (2002) Journal of Medicinal Chemistry, 45:2250-2259 and McConathy et al. (2003) Nuclear Medicine and Biology, 30:477-490. These, so called “amino acid uptake studies” are typically carried out with radiolabeled compounds in at least five phenotypically different human tumor cell lines (e.g. A549 lung carcinoma, MB468 breast carcinoma, DU145 prostate carcinoma, SKOV3 ovarian carcinoma, and U87 glial blastoma). These tumor cell lines can be grown either in vitro or in vivo with severe combined immunodeficiency (SCID) mice as a host. The fore-mentioned tumor cell lines are available at the Winship Cancer Institute of Emory University.
(§2) For the in vitro amino acid uptake studies, all cells can be grown to monolayer confluency in T-175 culture flasks [Corning, Corning, N.Y.] (approx. 1×10^8 cells/flask) in Dulbecco's Modified Eagle's Medium (DMEM) [Sigma, St. Louis, Mo.] in a humidified incubator (37° C., 5% CO2/95% air). Media are supplemented with 10% fetal calf serum [Hyclone, Logan, Utah], and antibiotics (10,000 U/ml penicillin and 10 mg/ml streptomycin) (Sigma, St. Louis, Mo.). For tissue culture passage, monolayer cells are detached by gentle trypsinization, resuspended in complete media, and split 1:10 into new T-flasks. […]
(§3) In the in vitro studies the uptake rate of each amino acid compound is measured in each tumor line, as well as the dominant transport mechanisms of each tumor cell line. After trypsinization, cells are resuspended in serum-free media, then counted on a hemocytometer, with viability assessed through Trypan blue staining. […] The vials are placed in a Cobra-II gamma counter (Packard, Meriden, Conn.), with the activity per cell number determined. […] Saline washes are performed as described above, and the filtered cells radioactivity determined on the gamma counter. […]

MB468 breast carcinoma = assay: in vitro amino acid uptake, MDA MB 468 cells; format: cell-based, human
Source text: as §1, §2, §3

[1] = tested on: type “L” type large-neutral amino acid transport system; assay: in vitro uptake studies in human tumor cells, summary; format: cell-based; conditions: U87, DU145, A549, SKOV3, MB468 cells (Table 1)
Source text: The inventive compounds have been evaluated in vitro for tumor binding specificity (i.e. uptake cells) using a variety of tumor cell lines available in the art, along with reference compounds such as Me-AIB and BCH. Detailed description of these assays can be found in Martarello et al. (2002) Journal of Medicinal Chemistry, 45:2250-2259 and McConathy et al. (2003) Nuclear Medicine and Biology, 30:477-490. These, so called “amino acid uptake studies” are typically carried out with radiolabeled compounds in at least five phenotypically different human tumor cell lines (e.g. A549 lung carcinoma, MB468 breast carcinoma, DU145 prostate carcinoma, SKOV3 ovarian carcinoma, and U87 glial blastoma). These tumor cell lines can be grown either in vitro or in vivo with severe combined immunodeficiency (SCID) mice as a host. […]
as §3

## NC1(C(=O)O)CCC1[18F] [Anti-R,S 2-[^18F]FACBC, (R,S) anti-1-amino-2-[^18F]fluorocyclobutyl-1-carboxylic acid]
U87 glial blastoma; U87, No inhibitor
  % Dose Uptake/0.5e6 Cells: 8.28 +/− 0.45 % Dose Uptake/0.5e6 Cells
U87 glial blastoma; U87, inhibitor BCH (10 mM)
  % Dose Uptake/0.5e6 Cells: 2.48 +/− 0.23 % Dose Uptake/0.5e6 Cells
U87 glial blastoma; U87, inhibitor MeAlB (10 mM)
  % Dose Uptake/0.5e6 Cells: 5.41 +/− 0.64 % Dose Uptake/0.5e6 Cells
MB468 breast carcinoma; MDA MB 468, No inhibitor
  % Dose Uptake/0.5e6 Cells: 7.37 +/− 0.21 % Dose Uptake/0.5e6 Cells
MB468 breast carcinoma; MDA MB 468, inhibitor BCH (10 mM)
  % Dose Uptake/0.5e6 Cells: 1.67 +/− 0.36 % Dose Uptake/0.5e6 Cells
MB468 breast carcinoma; MDA MB 468, inhibitor MeAlB (10 mM)
  % Dose Uptake/0.5e6 Cells: 3.02 +/− 0.55 % Dose Uptake/0.5e6 Cells
[1]
  uptake by the type “L” type large-neutral amino acid transport system: high uptake
